The values below are quoted from earlier work in patent US8865753B2, “Compounds as cannabinoid receptor ligands” (priority 2007, dated 2014).

In series [1] the test system is animal models. Particulars: animal models of acute thermal pain, persistent pain, inflammatory pain and neuropathic pain.
Series [2] relates to rodent. The conditions noted are these: rodent models of neuropathic, incisional, and both chronic and acute inflammatory pain.
Series [3] has as its system rat. Particulars: rat formalin model of persistent pain; Hanus et al. 1999.
For series [4], the system named is microglial. The conditions noted are these: in vitro; Ramirez et al. 2005.
Series [5] concerns apolipoprotein E knockout mice. Particulars: Steffens et al. 2005.
The test system of series [6] is mice. Particulars: model for post-menopausal osteoporosis, Ralston et al. 2005.
For series [7], the system named is osteoclast. The conditions noted are these: Ralston et al. 2005.

Consider `CN1CCCCC1Cn1cc(C(=O)c2cc([N+](=O)[O-])ccc2I)c2ccccc21` (stereo not drawn) [AM-1241], for which the analgesic efficacy result in series [1] is “robust analgesic efficacy”.

In the case of `COc1ccc2c(c1)c(CCN1CCOCC1)c(C)n2C(=O)c1cccc(Cl)c1Cl` [GW405833], the “efficacy in pain models” value in series [2] is recorded as “efficacious”.

Turning to `CCCCCCC(C)(C)c1cc(OC)c([C@@H]2C=C(CO)[C@@H]3C[C@H]2C3(C)C)c(OC)c1` [HU-308], the antinociceptive response result in series [3] is “elicits an antinociceptive response”.

Take `CCCC(C)(C)c1ccc2c(c1)OC(C)(C)[C@@H]1CC=C(C)C[C@@H]21` [JWH-133]: the “β-amyloid-induced microglial activation and neurotoxicity” value in series [4] is reported as “abrogated”.

Turning to (−)-Δ^9-Tetrahydrocannabinol [THC], the “progression of atherosclerotic lesions” value in series [5] (low doses) was “slowed the progression of atherosclerotic lesions”.

Consider SR144528, for which the ovariectomy-induced bone loss result in series [6] is “reverse ovariectomy-induced bone loss”. Besides, the osteoclast activity entry in series [7] is given as “inhibit osteoclast activity”. For the same molecule, the “blockade of the effects of JWH-133” value in series [4] is on record as “blocked”. Further, in series [5], the “inhibition of the effects of THC on atherosclerotic lesions” value was “inhibited”.
